One may read the Ki as a dissociation constant, usually derived from enzyme kinetics or from competition with a known ligand. What is called IC50 is the concentration needed to halve the response being measured.

Test [1] deals with T1, P2X purinoceptor 7 (Homo sapiens, UniProt Q99572).
T1 sequence (Q99572 whole entry): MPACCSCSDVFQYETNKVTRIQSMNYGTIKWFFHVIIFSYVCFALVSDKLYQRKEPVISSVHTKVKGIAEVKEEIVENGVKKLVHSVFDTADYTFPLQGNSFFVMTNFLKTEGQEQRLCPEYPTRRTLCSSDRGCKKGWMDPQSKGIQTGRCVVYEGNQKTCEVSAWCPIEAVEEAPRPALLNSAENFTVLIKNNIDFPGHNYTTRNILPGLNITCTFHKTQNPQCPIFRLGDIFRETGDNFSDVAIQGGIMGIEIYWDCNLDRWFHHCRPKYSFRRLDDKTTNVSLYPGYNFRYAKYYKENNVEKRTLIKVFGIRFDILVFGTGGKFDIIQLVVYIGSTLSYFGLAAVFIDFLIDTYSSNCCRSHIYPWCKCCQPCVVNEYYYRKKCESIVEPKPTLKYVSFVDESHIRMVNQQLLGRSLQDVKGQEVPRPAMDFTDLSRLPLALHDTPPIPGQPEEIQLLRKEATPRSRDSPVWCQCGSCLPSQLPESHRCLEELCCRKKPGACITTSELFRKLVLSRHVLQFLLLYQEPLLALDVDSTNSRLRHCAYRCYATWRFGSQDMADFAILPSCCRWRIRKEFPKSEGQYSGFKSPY
The experiment in a line: Competitive displacement of [11C]GSK1482160 from human recombinant P2X7 receptor expressed in HEK293 cell membranes incubated for 30 mins by scintillation counting method based radioligand competitive binding assay. (Displacement assays read how much labelled ligand stays bound in the presence of the test substance.)

Test [2] concerns the target T1, P2X purinoceptor 7. The experiment in a line: Displacement of [11C]GSK1482160 from human recombinant P2X7 receptor expressed in HEK293 cell membranes incubated for 30 mins by scintillation counting method based radioligand competitive binding assay.

Take `CN1C(=O)CC[C@H]1C(=O)NCc1cccc(C(F)(F)F)c1F`: the Ki at P2X purinoceptor 7 [1] worked out at 54.2 nM. Moreover, the IC50 at P2X purinoceptor 7 [2] came out at 153 nM. Regarding `CN1C(=O)CC[C@H]1C(=O)NCc1cccc(C(F)(F)F)c1Br`, the Ki on P2X purinoceptor 7 [1] was found to be 2.5 nM. Further, the IC50 on P2X purinoceptor 7 [2] is 7.1 nM. The like results for `CN1C(=O)CC[C@H]1C(=O)NCc1cccc(C(F)(F)F)c1I` were, in that order, 1.9 nM and 5.3 nM. Consider `CN1C(=O)CC[C@H]1C(=O)NCc1cccc(C(F)(F)F)c1Cl` [GSK1482160], for which, at P2X purinoceptor 7 [1], the Ki turned out to be 3.1 nM.

Source of the values: ChEMBL document CHEMBL4339234, “Synthesis and in vitro biological evaluation of new P2X7R radioligands [11C]halo-GSK1482160 analogs” (Bioorg Med Chem Lett, 2019).
